Source: paper PMC6588243, “Fate of ptaquiloside—A bracken fern toxin—In cattle” (PLoS ONE, 2019)
Where two headings read alike, the source gives them in different places.

What was measured:
Assay type in all cases: in vivo, Jersey heifers
[1] = Toxicokinetics in plasma after oral administration of bracken extract or dried bracken fern; details: for AUC0-∞ / MTT mean transit time: PTB in plasma; for Cmax / Tmax / k el: female, Jersey, plasma, po; for Cmax: read-out: Cmax maximum concentration; for k el: read-out: λz terminal slope (converted)
Procedure: (§1) Two heifers (no’s 4848 and 4849) were used in a series of five experiments (Table 1) in a cross-over design including intravenous administration of pure PTA, oral administration of bracken extract and oral administration of dried bracken fern. At least 2 weeks elapsed between each experiment.
Oral exposure, bracken extract. Bracken extract was administered orally by gavage in Experiment 2 (170 and 172 mL) and Experiment 5 (820 and 850 mL), to obtain PTA doses of 0.41 and 2 mg kg^-1 b.w (1.025 and 5.000 μmoles kg^-1), respectively. Blood and urine samples were collected up to 48 hours after gavage and samples were processed and stored as described previously.
Oral exposure, dried bracken fern. In Experiment 3, dried bracken fern was milled to a fine powder. Immediately before administration, the powder was mixed with water to produce a slurry (15 g of bracken per 100 mL of water). The slurry was administered orally by gavage (400 mL and 380 mL) corresponding to a PTA dose of 1.6 mg kg^-1 b.w (4 μmoles kg^-1). Blood and urine samples were collected up to 72 hours after gavage and the samples were processed and stored as described above.
(§2) Concentrations of PTA in plasma of individual animals were evaluated by non-compartmental analysis. Toxicokinetic variables were calculated using standard kinetic equations. The area under the curve (AUC) and the area under the first moment curve (AUMC) were determined using combined linear and natural logarithm trapezoidal rules. The terminal elimination rate was determined using the last three data points of the curve.
(§3) PTA and PTB were analysed by LC-MS after purification using solid phase extraction (SPE) columns as reported in Aranha et al.. The limit of quantification of PTA and PTB in plasma was 3.0 x 10^−3 μM and 9.30 x 10^−3 μM, respectively. Limit of quantifications in diluted urine was 13 x 10^−3 μM for PTA and 8.28 x 10^−3μM for PTB.

[2] = Urinary recovery of PTA and PTB after intravenous administration of PTA; details: twelve hours after iv administration of PTA
Procedure: Intravenous administration of PTA. In Experiment 1 the dose of purified PTA (0.21 mg kg^-1 body weight (b.w.) / 0.527 μmoles kg^-1) was dissolved in 10 mL of sterile water in a brown glass vial 1 hour before administration and protected from light. The solution was injected through a catheter (Cavafix Certo: 45 cm, 16 G; B. Braun Melsungen AG, Melsungen, Germany) placed in the right jugular vein. Blood samples were collected through another catheter placed in the left jugular vein. Blood samples were collected in heparinized glass tubes before and at predetermined times (10, 20, 30, 45 min and 1, 2, 4, 6, 8, 12, 21 and 24 hours) after PTA administration. The blood was centrifuged for 15 min at 3000 g to separate plasma which then was stored immediately at -18°C until assayed within a week following the method of Aranha et al.. Urine was collected quantitatively in urinary bags (Ratiomed GmBH, München, Germany) through a Foley catheter (Rusch Silasil no 16; Teleflex, Milan, Italy) inserted into the bladder. […]
as §3

[3] = Toxicokinetics of PTA and PTB in plasma after intravenous administration of PTA
Procedure: as §1
Intravenous administration of PTA. In Experiment 1 the dose of purified PTA (0.21 mg kg^-1 body weight (b.w.) / 0.527 μmoles kg^-1) was dissolved in 10 mL of sterile water in a brown glass vial 1 hour before administration and protected from light. The solution was injected through a catheter (Cavafix Certo: 45 cm, 16 G; B. Braun Melsungen AG, Melsungen, Germany) placed in the right jugular vein. Blood samples were collected through another catheter placed in the left jugular vein. Blood samples were collected in heparinized glass tubes before and at predetermined times (10, 20, 30, 45 min and 1, 2, 4, 6, 8, 12, 21 and 24 hours) after PTA administration. The blood was centrifuged for 15 min at 3000 g to separate plasma which then was stored immediately at -18°C until assayed within a week following the method of Aranha et al.. Urine was collected quantitatively in urinary bags (Ratiomed GmBH, München, Germany) through a Foley catheter (Rusch Silasil no 16; Teleflex, Milan, Italy) inserted into the bladder. Samples were collected before and at predetermined times (1, 2, 4, 6, 8, 12, 20 and 24 hours) after PTA administration. Two replicates from each sample were diluted 10 times (0.5 mL: 4.5 mL) with 0.1 M acetic acid, buffered to pH 5 with ammonium acetate and frozen immediately at -18°C until assayed within a week following the method of Aranha et al.. […] In this experiment, PTA was dissolved in sterile water immediately before injection.
as §2, §3

[4] = oral bracken extract, PTA dose 1.03 μmoles kg^-1, heifer no 4848
[5] = oral bracken extract, PTA dose 1.03 μmoles kg^-1, heifer no 4849
[6] = oral bracken extract, PTA dose 5.02 μmoles kg^-1, heifer no 4848
[7] = oral bracken extract, PTA dose 5.02 μmoles kg^-1, heifer no 4849
[8] = oral dried bracken, PTA dose 4.02 μmoles kg^-1, heifer no 4848
[9] = oral dried bracken, PTA dose 4.02 μmoles kg^-1, heifer no 4849
[10] = bovine, 1.03 μmoles kg^-1, PTB in plasma, oral bracken extract, PTA dose 1.03 μmoles kg^-1, heifer no 4848
[11] = bovine, 1.03 μmoles kg^-1, PTB in plasma, oral bracken extract, PTA dose 1.03 μmoles kg^-1, heifer no 4849
[12] = bovine, 4.02 μmoles kg^-1, PTB in plasma, oral dried bracken, PTA dose 4.02 μmoles kg^-1, heifer no 4848
[13] = bovine, 4.02 μmoles kg^-1, PTB in plasma, oral dried bracken, PTA dose 4.02 μmoles kg^-1, heifer no 4849
[14] = bovine, 5.02 μmoles kg^-1, PTB in plasma, oral bracken extract, PTA dose 5.02 μmoles kg^-1, heifer no 4848
[15] = bovine, 5.02 μmoles kg^-1, PTB in plasma, oral bracken extract, PTA dose 5.02 μmoles kg^-1, heifer no 4849

With `Cc1cc2c(c(C)c1CCO)C(=O)[C@H](C)C2` [PTB, pterosin B] the “AUC0-∞” value [1, 4] was 177 nM·h, the “MTT mean transit time” value [1, 4] was 3.82 h and the “AUC0-∞” value [1, 5] was 367 nM·h. For the same compound, the “MTT mean transit time” value [1, 5] was 4.55 h, the “AUC0-∞” value [1, 6] was 594 nM·h and the “MTT mean transit time” value [1, 6] was 2.89 h. The “AUC0-∞” value [1, 7] was 657 nM·h, the “MTT mean transit time” value [1, 7] was 3.02 h and the “AUC0-∞” value [1, 8] was 897 nM·h. The “MTT mean transit time” value [1, 8] was 3.29 h, the “AUC0-∞” value [1, 9] was 428 nM·h and the “MTT mean transit time” value [1, 9] was 3.58 h. The “PTB in plasma and urine after oral administration” value ([1]; bracken extract or dried ferns) was “detected in both plasma and urine”, the Cmax [1, 10] was 0.028 µM and the Tmax ([1]; bovine, 1.03 μmoles kg^-1, PTB in plasma, oral bracken extract, PTA dose 1.03 μmoles kg^-1, heifer no 4848, read-out: Tmax time at maximum concentration) was 120 min. For the same compound, the k el [1, 10] was 6.5e-05 s⁻¹, the Cmax [1, 11] was 0.043 µM and the Tmax ([1]; bovine, 1.03 μmoles kg^-1, PTB in plasma, oral bracken extract, PTA dose 1.03 μmoles kg^-1, heifer no 4849, read-out: Tmax time at maximum concentration) was 30 min. For the same compound, the k el [1, 11] was 2.78e-05 s⁻¹, the Cmax [1, 12] was 0.182 µM and the Tmax ([1]; bovine, 4.02 μmoles kg^-1, PTB in plasma, oral dried bracken, PTA dose 4.02 μmoles kg^-1, heifer no 4848, read-out: Tmax time at maximum concentration) was 30 min. For the same compound, the k el [1, 12] was 8.56e-05 s⁻¹, the Cmax [1, 13] was 0.074 µM and the Tmax ([1]; bovine, 4.02 μmoles kg^-1, PTB in plasma, oral dried bracken, PTA dose 4.02 μmoles kg^-1, heifer no 4849, read-out: Tmax time at maximum concentration) was 120 min. For the same compound, the k el [1, 13] was 7.78e-05 s⁻¹, the Cmax [1, 14] was 0.16 µM and the Tmax ([1]; bovine, 5.02 μmoles kg^-1, PTB in plasma, oral bracken extract, PTA dose 5.02 μmoles kg^-1, heifer no 4848, read-out: Tmax time at maximum concentration) was 60 min. The k el [1, 14] was 0.000106 s⁻¹, the Cmax [1, 15] was 0.174 µM and the Tmax ([1]; bovine, 5.02 μmoles kg^-1, PTB in plasma, oral bracken extract, PTA dose 5.02 μmoles kg^-1, heifer no 4849, read-out: Tmax time at maximum concentration) was 45 min. The k el [1, 15] was 8.06e-05 s⁻¹, the Tmax ([1]; cattle, PTB, oral bracken extract and bracken fern, read-out: time to maximum concentration in plasma (Tmax)) was roughly 60 min and the “dose recovered in urine as PTB” value [2] was 12%. The “AUC0-∞” value ([3]; PTB in plasma after iv PTA 0.141 μmoles kg^-1, heifer no 4849, head prints Experiment 2) was 319 nM·h, the “AUC0-∞” value ([3]; PTB in plasma after iv PTA 0.231 μmoles kg^-1, heifer no 4848, head prints Experiment 2) was 284 nM·h and the “AUC0-∞” value ([3]; PTB in plasma after iv PTA 0.527 μmoles kg^-1, heifer no 4848, Experiment 1) was 596 nM·h. For the same compound, the “AUC0-∞” value ([3]; PTB in plasma after iv PTA 0.527 μmoles kg^-1, heifer no 4849, Experiment 1) was 654 nM·h, the Tmax ([3]; female, Jersey, cattle, plasma, 0.21 mg kg^-1 b.w., iv PTA, first sampling point, read-out: time of peak plasma concentration of the metabolite after administration of PTA (converted)) was 10 min and the “ratio of AUC PTB to AUC PTA” value ([3]; heifer no 4848, Experiments 1 and 4) was “approx. 0.4”. The “ratio of AUC PTB to AUC PTA” value ([3]; heifer no 4849, additional iv experiment with lower dose) was 0.76.
